Source: patent publication US6166050A, “3,4-diamino-3-cyclobutene-1,2-dione derivatives which inhibit leukocyte adhesion mediated by VLA-4” (American Home Products Corporation, priority 1999, dated 2000)

Target: T1, α4 β1 integrin (VLA-4) (Homo sapiens, UniProt P05556+P13612)
T1 construct: Jurkat cells (ATCC #TIB-153) which express high levels of α4 β1 integrin (VLA-4); host or cells: Jurkat cells
Test: Monovalent FACS Assay for α4 β1 Integrin/VCAM-1 Binding (inhibition of soluble VCAM-1 binding to Jurkat cells)
Settings: not given
Experimental: The foregoing compounds were tested for VLA-4 binding activity using the following monvalent FACS assay. The IC50 for a compound reflects 50% receptor occupancy.
Monovalent FACS Assay for α4 β1 Integrin/VCAM-1 Binding
The VLA-4 binding activity of exemplary compounds was measured by measuring the inhibition of the interaction of soluble VCAM-1 with Jurkat cells (ATCC #TIB-153) which express high levels of α4 β1 integrin (VLA-4) using a modification of the fluorescence activated cell sorter (FACS) assay described by Yednock, et al., J. Biol. Chem., 1995, 270:28740. VCAM-1 interacts with the cell surface in an α4 β1 integrin-dependent fashion.
Jurkat cells were grown in RPMI 1640 supplemented with 10% fetal bovine serum, penicillin, streptomycin and glutamine as described by Yednock, supra.
Recombinant soluble VCAM-1 (rsVCAM-1) was produced in a baculovirus expression system as a chimeric fusion protein containing the seven immunoglobulin domains of VCAM-1 on the N-terminus and the human IgG1 heavy chain constant region on the C-terminus as described by Yednock, supra. Supernatant containing approximately 10 ug/ml rsVCAM-1 was collected after 72 hours and used in the assay without purification.
Jurkat cells (approximately 10^7 cells/ml) were treated with 1.5 mM MnCl2 and 5 μg/ml 15/7 for 30 minutes on ice to activate β1 integrin. Mn^+2 activates the receptor to enhance ligand binding, and 15/7 is a monoclonal antibody that recognizes an activated/ligand occupied conformation of α4 β1 integrin and locks the molecule into this conformation thereby stabilizing the VCAM-1/α4 β1 integrin interaction. Yednock, et al., supra. Antibodies similar to 15/7 have been prepared and may be used in this assay. For example, see, Luque, et al., 1996, J. Bio. Chem., 271: 11067.
Aliquots of 25 μl cells were incubated for 30 minutes at room temperature with compounds using a standard 5-point serial dilution. 15 μl of rsVCAM-Fc-containing baculovirus supernatant was added to the cells and incubated for 30 minutes on ice as described in Yednock, et al., supra.
Cells were washed twice and resuspended in 100 μl of a 1:100 dilution of FITC-conjugated goat anti-human IgG to detect the human Ig-VCAM-1 construct diluted in assay media containing 2.5% mouse serum to block potential cross-reactivity with cell surface bound 15/7. Cells were incubated on ice for 30 minutes in the dark. Cells were washed twice and analyzed with a standard FACS analysis as described in Yednock, et al., supra. on a FACScan flow cytometer (Becton Dickinson, Mountain View, Calif.).

T1 sequence (P13612 34-1032): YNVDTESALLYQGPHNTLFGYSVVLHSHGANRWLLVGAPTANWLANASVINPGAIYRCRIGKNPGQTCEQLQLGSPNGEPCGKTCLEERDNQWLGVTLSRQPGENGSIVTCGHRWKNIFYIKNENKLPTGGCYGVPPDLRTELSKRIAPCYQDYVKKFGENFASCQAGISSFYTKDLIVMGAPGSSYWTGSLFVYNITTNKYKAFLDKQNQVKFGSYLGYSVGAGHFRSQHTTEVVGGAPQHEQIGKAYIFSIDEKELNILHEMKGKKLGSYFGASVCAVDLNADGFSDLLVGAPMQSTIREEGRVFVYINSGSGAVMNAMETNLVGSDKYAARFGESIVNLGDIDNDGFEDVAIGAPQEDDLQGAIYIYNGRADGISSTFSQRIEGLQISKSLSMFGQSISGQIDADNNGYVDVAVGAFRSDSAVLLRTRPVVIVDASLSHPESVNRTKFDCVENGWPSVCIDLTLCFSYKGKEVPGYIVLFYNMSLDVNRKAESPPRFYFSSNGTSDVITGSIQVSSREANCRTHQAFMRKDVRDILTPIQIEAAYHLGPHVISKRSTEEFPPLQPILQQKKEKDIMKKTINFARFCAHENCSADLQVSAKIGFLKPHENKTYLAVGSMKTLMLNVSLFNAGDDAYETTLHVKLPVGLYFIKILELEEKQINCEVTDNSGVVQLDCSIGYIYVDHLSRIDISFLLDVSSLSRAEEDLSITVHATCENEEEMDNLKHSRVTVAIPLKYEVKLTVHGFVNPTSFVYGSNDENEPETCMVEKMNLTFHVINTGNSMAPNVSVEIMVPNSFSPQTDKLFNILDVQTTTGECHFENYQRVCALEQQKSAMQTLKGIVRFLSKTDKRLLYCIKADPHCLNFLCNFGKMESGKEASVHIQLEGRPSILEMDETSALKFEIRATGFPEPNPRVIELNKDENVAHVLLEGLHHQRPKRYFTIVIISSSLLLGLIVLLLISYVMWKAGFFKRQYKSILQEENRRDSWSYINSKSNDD
T1 sequence (P05556 21-798): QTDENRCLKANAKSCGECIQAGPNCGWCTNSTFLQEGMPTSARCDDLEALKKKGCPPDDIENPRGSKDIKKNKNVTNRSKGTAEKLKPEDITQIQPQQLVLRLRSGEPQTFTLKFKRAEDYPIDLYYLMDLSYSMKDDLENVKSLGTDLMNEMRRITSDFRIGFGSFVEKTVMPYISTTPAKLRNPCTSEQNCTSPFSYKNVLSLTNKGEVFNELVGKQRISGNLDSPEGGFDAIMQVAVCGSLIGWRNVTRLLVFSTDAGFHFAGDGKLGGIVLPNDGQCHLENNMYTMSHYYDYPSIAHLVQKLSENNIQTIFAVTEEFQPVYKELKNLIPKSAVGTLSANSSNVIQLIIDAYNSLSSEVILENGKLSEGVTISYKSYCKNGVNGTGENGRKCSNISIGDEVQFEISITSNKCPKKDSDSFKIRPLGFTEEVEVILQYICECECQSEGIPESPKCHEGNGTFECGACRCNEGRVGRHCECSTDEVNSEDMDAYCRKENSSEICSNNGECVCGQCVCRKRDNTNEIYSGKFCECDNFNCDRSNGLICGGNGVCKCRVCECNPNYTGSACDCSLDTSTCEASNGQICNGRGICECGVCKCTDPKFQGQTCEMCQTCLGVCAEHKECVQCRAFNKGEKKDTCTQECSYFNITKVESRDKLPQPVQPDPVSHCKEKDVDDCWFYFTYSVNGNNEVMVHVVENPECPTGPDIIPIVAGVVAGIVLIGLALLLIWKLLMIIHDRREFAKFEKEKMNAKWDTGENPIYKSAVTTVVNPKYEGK

Compound	IC50
CN1CCN(C(=O)Oc2ccc(C[C@H](Nc3c(N(C)CCc4ccccc4)c(=O)c3=O)C(=O)O)cc2)CC1 [Example 66, (2S)-3-[4-(4-methylpiperazinyl)carbamoyloxy-phenyl]-2-[2-(methyl-phenethyl-amino)-3,4-dioxo-cyclobut-1-enylamino]-propionic acid]	0.5 nM
CN1CCN(C(=O)Oc2ccc(C[C@H](Nc3c(N(C)CCc4ccncc4)c(=O)c3=O)C(=O)O)cc2)CC1 [Example 68, (2S)-3-[4-(4-methylpiperazinyl)carbamoyloxy-phenyl)-2-{2-[methyl-(2-pyridin-4-yl-ethyl)-amino]-3,4-dioxo-cyclobut-1-enylamino}-propionic acid]	1.3 nM

Same assay, conditions: Jurkat cells, rsVCAM-1; IC50 reflects 50% receptor occupancy; unit nM; read-out: IC50 (FACS)

Compound	IC50
CN(CCc1ccncc1)c1c(N[C@@H](Cc2ccc(NC(=O)c3ccncc3)cc2)C(=O)O)c(=O)c1=O [Example 35, N-[2-[Methyl[2-(4-pyridinyl)ethyl]amino]-3,4-dioxo-1-cyclobuten-1yl]-4-[(4-pyridinylcarbonyl)amino]-L-phenylalanine]	15 nM
CN(C)C(=O)Oc1ccc(C[C@H](Nc2c(N(C)CCc3ccccc3)c(=O)c2=O)C(=O)O)cc1 [Example 57]	0.9 nM
CCCCCCN(CCCCCC)c1c(N[C@@H](Cc2ccc(OC(=O)N(C)C)cc2)C(=O)O)c(=O)c1=O [Example 59, (2S)-2-(2-Dihexylamino-3,4-dioxo-cyclobut-1-enylamino)-3-(4-dimethylcarbamoyloxy-phenyl)-propionic acid]	0.6 nM
CN(C)C(=O)Oc1ccc(C[C@H](Nc2c(N(C)Cc3cccnc3)c(=O)c2=O)C(=O)O)cc1 [Example 61, (2S)-3-(4-Dimethylcarbamoyloxy-phenyl)-2-[2-(methyl-pyridin-3-ylmethyl-amino)-3,4-dioxo-cyclobut-1-enylamino]-propionic acid]	8.3 nM
CN(C)C(=O)Oc1ccc(C[C@H](Nc2c(N(C)CCc3ccncc3)c(=O)c2=O)C(=O)O)cc1 [Example 63, (2S)-3-(4-Dimethylcarbamoyloxy-phenyl)-2-{2-[methyl-(2-pyridin-4-yl-ethyl)-amino]-3,4-dioxo-cyclobut-1-enylamino}-propionic acid]	1.6 nM
CCCCCCN(CCCCCC)c1c(N[C@@H](Cc2ccc(OC(=O)N3CCN(C)CC3)cc2)C(=O)O)c(=O)c1=O [Example 70]	0.2 nM

Next, values leading:

IC50	Compound
150 nM	CCCCCCN(CCCCCC)c1c(N[C@@H](Cc2ccc(NC(=O)c3ccccc3)cc2)C(=O)O)c(=O)c1=O [Example 26, (S)-3-(4-Benzoylamino-phenyl)-2-(2-dihexylamino-3,4-dioxo-cyclobut-1-enylamino)-propionic acid]
631 nM	CCCCCCN(CCCCCC)c1c(N[C@@H](Cc2cn(Cc3ccccc3)cn2)C(=O)O)c(=O)c1=O [Example 29, (S)-3-(1-Benzyl-1H-imidazol-4-yl)-2-(2-dihexylamino-3,4-dioxo-cyclobut-1-enylamino)-propionic acid]
12 nM	CCCCCCN(CCCCCC)c1c(N[C@@H](Cc2ccc(OCCCN(C)C)cc2)C(=O)O)c(=O)c1=O [Example 32, N-(2-Dihexylamino-3,4-dioxo-cyclobut-1-enylamino)-O-(3-dimethylamino-propyl)-L-tyrosine]
2.2 nM	CN(CCc1ccccc1)c1c(N[C@@H](Cc2ccc(NC(=O)c3ccncc3)cc2)C(=O)O)c(=O)c1=O [Example 37, N-[2-[Methyl(2-phenylethyl)amino]-3,4-dioxo-1-cyclobuten-1-yl]-4-[(4-pyridinylcarbonyl)amino]-L-phenylalanine]
1.3 nM	CCCCCCN(CCCCCC)c1c(N[C@@H](Cc2ccc(NC(=O)c3ccncc3)cc2)C(=O)O)c(=O)c1=O [Example 39, N-[2-(Dihexylamino)-3,4-dioxo-1-cyclobuten-1-yl]-4-[(4-pyridinylcarbonyl)amino]-L-phenylalanine]
26 nM	CN(Cc1cccnc1)c1c(N[C@@H](Cc2ccc(NC(=O)c3ccncc3)cc2)C(=O)O)c(=O)c1=O [Example 41, N-[2-(Methyl-pyridin-3-ylmethyl-amino)-3,4-dioxo-cyclobut-1-enyl]-4-[(pyridine-4-carbonyl)-amino]-L-phenylalanine]
6.5 nM	CCCCCCN(CCCCCC)c1c(N[C@@H](Cc2ccc(NC(=O)c3cccnc3)cc2)C(=O)O)c(=O)c1=O [Example 44, N-[2-(Dihexylamino)-3,4-dioxo-1-cyclobuten-1-yl]-4-[(3-pyridinylcarbonyl)amino]-L-phenylalanine]
40 nM	CN(CCc1ccncc1)c1c(N[C@@H](Cc2ccc(NC(=O)c3cccnc3)cc2)C(=O)O)c(=O)c1=O [Example 46]
160 nM	CN(Cc1cccnc1)c1c(N[C@@H](Cc2ccc(NC(=O)c3cccnc3)cc2)C(=O)O)c(=O)c1=O [Example 48, N-[2-(Methyl-pyridin-3-ylmethyl-amino)-3,4-dioxo-cyclobut-1-enyl]-4-[(pyridine-3-carbonyl)-amino]-L-phenylalanine]
71 nM	CCCCCCN(CCCCCC)c1c(N[C@@H](Cc2ccc(NC(=O)C3CCN(C(=O)OCc4ccccc4)CC3)cc2)C(=O)O)c(=O)c1=O [Example 53]

Same assay, conditions: Jurkat cells, rsVCAM-1; IC50 reflects 50% receptor occupancy; unit μM; read-out: IC50 (FACS)

Compound	IC50
O=C(O)[C@H](Cc1ccccc1)Nc1c(NCc2ccccc2)c(=O)c1=O [Example 3, [2-(Benzylamino)-3,4-dioxo-cyclobut-1-enyl]-L-phenylalanine]	58000 nM
O=C(O)[C@H](Cc1ccccc1)Nc1c(NC(c2ccccc2)c2ccccc2)c(=O)c1=O [Example 5, [2-(benzhydrylamino)-3,4-dioxo-cyclobut-1-enyl]-L-phenylalanine]	101000 nM
O=C(O)[C@H](Cc1ccccc1)Nc1c(NCCc2c[nH]c3ccccc23)c(=O)c1=O [Example 7, 2-{2-[2-(1H-Indol-3-yl)-ethylamino]-3,4-dioxo-cyclobut-1-enylamino}-L-phenylalanine]	52000 nM
O=C(O)[C@H](Cc1ccccc1)Nc1c(NCc2cccnc2)c(=O)c1=O [Example 9, {3,4-Dioxo-2-[(pyridin-3-ylmethyl)-amino]-cyclobut-1-enyl}-L-phenylalanine]	116000 nM
O=C(O)[C@H](Cc1ccccc1)Nc1c(N(Cc2ccccc2)Cc2ccccc2)c(=O)c1=O [Example 13, (2-Dibenzylamino-3,4-dioxo-cyclobut-1-enylamino)-L-phenylalanine]	4400 nM
O=C(O)[C@H](Cc1ccccc1)Nc1c(N2CCN(c3ccccc3)CC2)c(=O)c1=O [Example 21, N-[3,4-Dioxo-2-(4-phenyl-piperazin-1-yl)-cyclobut-1-en-1-yl]-L-phenylalanine]	86000 nM
CC(=O)N1CCN(c2c(N[C@@H](Cc3ccccc3)C(=O)O)c(=O)c2=O)CC1 [Example 23, (S)-2-[2-(4-Acetyl-piperazin-1-yl)-3,4-dioxo-cyclobut-1-enylamino]-3-phenyl-propionic acid]	40000 nM
CN(CCc1ccncc1)c1c(N[C@@H](Cc2ccccc2)C(=O)O)c(=O)c1=O [Example 50, N-{2-[Methyl-(2-pyridin-4-yl-ethyl)-amino]-3,4-dioxo-cyclobut-1-enyl}-L-phenylalanine]	9000 nM

Next, values leading:

IC50	Compound
4400 nM	CCCCCCN(Cc1ccccc1)c1c(N[C@@H](Cc2ccccc2)C(=O)O)c(=O)c1=O [Example 11, [2-(Benzyl-hexyl-amino)-3,4-dioxo-cyclobut-1-enyl]-L-phenylalanine]
1500 nM	CCCCCCN(CCCCCC)c1c(N[C@@H](Cc2ccccc2)C(=O)O)c(=O)c1=O [Example 15, (S)-2-(2-Dihexylamino-3,4-dioxo-cyclobut-1-enylamino)-3-phenyl-propionic acid]
36000 nM	CCCCCCN(Cc1ccc2ccccc2c1)c1c(N[C@@H](Cc2ccccc2)C(=O)O)c(=O)c1=O [Example 17, (S)-2-[2-(Hexyl-naphthalen-2-ylmethyl-amino)-3,4-dioxo-cyclobut-1-enylamino]-3-phenyl-propionic acid]
13000 nM	CCCCCCN(Cc1ccc(N(C)C)cc1)c1c(N[C@@H](Cc2ccccc2)C(=O)O)c(=O)c1=O [Example 19, (S)-2-{2-[(4-Dimethylamino-benzyl)-hexyl-amino]-3,4-dioxo-cyclobut-1-enylamino}-3-phenyl-propionic acid]
